59 molecules from patent US20220324865A1 (Bayer Aktiengesellschaft, priority 2018, published 2022) can be followed below.

The target of this test is T1, human EP3 receptor (Homo sapiens, UniProt P43115).
T1 construct: expressed in transfected cells; host or cells: CHO K1 (Chinese Hamster Ovary), stably co-transfected with Galpha16 and mitochondrial clytin
T1 sequence (P43115 1-390): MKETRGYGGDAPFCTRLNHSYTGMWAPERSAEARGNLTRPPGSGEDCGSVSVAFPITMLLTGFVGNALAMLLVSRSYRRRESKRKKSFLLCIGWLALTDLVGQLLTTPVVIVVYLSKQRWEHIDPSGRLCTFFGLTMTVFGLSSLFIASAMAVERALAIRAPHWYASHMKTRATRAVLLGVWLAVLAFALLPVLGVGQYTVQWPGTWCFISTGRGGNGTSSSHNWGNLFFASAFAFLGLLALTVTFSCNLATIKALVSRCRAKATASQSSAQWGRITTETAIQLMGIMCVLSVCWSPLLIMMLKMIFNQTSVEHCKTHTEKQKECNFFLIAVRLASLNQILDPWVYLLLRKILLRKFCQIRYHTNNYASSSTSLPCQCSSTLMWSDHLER
The test can be described thus: Cellular in vitro assay for determining EP3 receptor activity (human EP3 cell line, sulprostone-stimulated calcium luminescence). Type of test: cell-based. The conditions noted are these: CHO cells expressing human EP3 and mitochondrial Clytin; antagonist mode, sulprostone at EC50; read-out: EP3 CHO mtCLY ANTAG IC50. The method, boiled down:
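Antagonist activity was measured as inhibition of the luminescent calcium signal elicited by EC50 sulprostone, following 10 min compound pretreatment. The cell line was recombinant CHO K1 co-expressing human EP3, Gα16 and the photoprotein Clytin, reconstituted with coelenterazine.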
In general, IC50 refers to the concentration that gives 50% inhibition. On to `CN1CC(NC(=O)c2nn3cc(-c4ccc5c(c4)OCCO5)[nH]c(=O)c3c2C2CC2)(c2ccc(F)cc2)C1` [6-467], for which the IC50 was 2.35 nM.

As to `CN1CC(NC(=O)c2nn3cc(-c4cc(F)c(Cl)c(F)c4)[nH]c(=O)c3c2C2CC2)(c2ccc(F)cc2)C1` [6-471], the concentration for half-maximal inhibition (IC50) stood at 1.8 nM.

With `C[C@H](NC(=O)c1nn2cc(-c3cc(F)c(Cl)c(F)c3)[nH]c(=O)c2c1C1CC1)C1CC1` [6-472], the IC50 amounted to 1.16 nM.

Regarding `C[C@@H](NC(=O)c1nn2cc(-c3cc(F)c(Cl)c(F)c3)[nH]c(=O)c2c1C1CC1)C1CC1` [6-473], the IC50 turned out to be 3.3 nM.

Take `O=C(N[C@@H](c1ccc(F)cc1)C(F)(F)CO)c1nn2cc(-c3cc(F)c(Cl)c(F)c3)[nH]c(=O)c2c1C1CC1` [6-474]: the IC50 came to 1.63 nM.

For `CC(C)(O)[C@@H](NC(=O)c1nn2cc(-c3cc(F)c(Cl)c(F)c3)[nH]c(=O)c2c1C1CC1)c1ccc(F)cc1` [6-475], the IC50 was determined as 2.58 nM.

As to `Cc1cc(-c2cn3nc(C(=O)N[C@H](C)C4CC4)c(C(F)(F)C(F)(F)F)c3c(=O)[nH]2)ccc1Cl` [6-476], the IC50 was 5.3 nM.

Consider `Cc1cc(-c2cn3nc(C(=O)N[C@@H](c4ccc(F)cc4)C(F)(F)CO)c(C(F)(F)C(F)(F)F)c3c(=O)[nH]2)ccc1Cl` [6-477], for which the IC50 came to 0.44 nM.

In the case of `Cc1cc(-c2cn3nc(C(=O)N[C@@H](C)C4CC4)c(C(F)(F)C(F)(F)F)c3c(=O)[nH]2)ccc1Cl` [6-478], the IC50 is 1.2 nM.

On to `CC[C@@H](C)NC(=O)c1nn2cc(-c3ccc(Cl)c(C)c3)[nH]c(=O)c2c1C(F)(F)C(F)(F)F` [6-479], for which the IC50 was 2.3 nM.

Consider `Cc1cc(-c2cn3nc(C(=O)NC4(c5ccc(F)cc5)CN(C)C4)c(C(F)(F)C(F)(F)F)c3c(=O)[nH]2)ccc1Cl` [6-480], for which the IC50 amounted to 3.05 nM.

On to `COc1cc(-c2cn3nc(C(=O)N[C@@H](C)C4CC4)c(C4CC4)c3c(=O)[nH]2)ccc1Cl` [6-481], for which the half-maximal inhibitory concentration (IC50) amounted to 0.57 nM.

For the molecule `COc1cc(-c2cn3nc(C(=O)N[C@H](CCO)c4ccc(F)cc4)c(C4CC4)c3c(=O)[nH]2)ccc1Cl` [6-482], the IC50 turned out to be 0.48 nM.

Regarding `COc1cc(-c2cn3nc(C(=O)N[C@H](C)C4CC4)c(C4CC4)c3c(=O)[nH]2)ccc1Cl` [6-483], the IC50 was found to be 1.01 nM.

In the case of `COc1cc(-c2cn3nc(C(=O)N[C@@H](c4ccc(F)cc4)C(C)(C)O)c(C4CC4)c3c(=O)[nH]2)ccc1Cl` [6-484], the half-inhibitory concentration (IC50) was 1.8 nM.

As to `COc1cc(-c2cn3nc(C(=O)NC4(c5ccc(F)cc5)CN(C)C4)c(C4CC4)c3c(=O)[nH]2)ccc1Cl` [6-485], the IC50 amounted to 3.4 nM.

Regarding `COc1cc(-c2cn3nc(C(=O)N[C@@H](c4ccc(F)cc4)C(F)(F)CO)c(C4CC4)c3c(=O)[nH]2)ccc1Cl` [6-486], the IC50 was 2.1 nM.

As for `Cc1ccc(-c2cn3nc(C(=O)N[C@@H](c4ccc(F)cc4)C(F)(F)CO)c(C(F)(F)C(F)(F)F)c3c(=O)[nH]2)cc1Cl` [6-487], the IC50 is 0.67 nM.

As for `Cc1ccc(-c2cn3nc(C(=O)N[C@@H](c4ccc(F)cc4)C(C)(C)O)c(C(F)(F)C(F)(F)F)c3c(=O)[nH]2)cc1Cl` [6-488], the IC50 was 0.57 nM.

Take `Cc1ccc(-c2cn3nc(C(=O)N[C@@H](c4ccc(F)cc4)C(F)(F)CO)c(C(F)(F)C(F)(F)F)c3c(=O)[nH]2)cc1C` [6-489]: the IC50 came to 0.41 nM.

With `Cc1ccc(-c2cn3nc(C(=O)N[C@@H](c4ccc(F)cc4)C(F)(F)CO)c(C(F)(F)C(F)(F)F)c3c(=O)[nH]2)cc1F` [6-491], the half-maximal inhibitory concentration (IC50) turned out to be 0.58 nM.

Consider `Cc1ccc(-c2cn3nc(C(=O)N[C@@H](c4ccc(F)cc4)C(C)(C)O)c(C(F)(F)C(F)(F)F)c3c(=O)[nH]2)cc1F` [6-492], for which the IC50 came out at 1.8 nM.

`CC(C)(O)[C@@H](NC(=O)c1nn2cc(-c3ccc(Cl)c(F)c3)[nH]c(=O)c2c1C(F)(F)C(F)(F)F)c1ccc(F)cc1` [6-493]: the IC50 worked out at 2.98 nM.

`COC[C@@H](NC(=O)c1nn2cc(-c3ccc4ccccc4c3)[nH]c(=O)c2c1C(F)(F)F)c1ccccc1` [6-495]: the IC50 was 0.61 nM.

`CCn1cc(CNC(=O)c2nn3cc(-c4ccc5ccccc5c4)[nH]c(=O)c3c2C(F)(F)F)c(C)n1` [6-496]: the IC50 came out at 1.2 nM.

As to `O=C(NC(CO)(CO)C(F)(F)F)c1nn2cc(-c3ccc4ccccc4c3)[nH]c(=O)c2c1C(F)(F)F` [6-498], the IC50 worked out at 7.13 nM.

For `CC[C@@H](C)NC(=O)c1nn2cc(-c3ccc4ccccc4c3)[nH]c(=O)c2c1C(F)(F)F` [6-511], the half-inhibitory concentration (IC50) stood at 0.59 nM.

Consider `CC(C)[C@@H](C)NC(=O)c1nn2cc(-c3ccc4ccccc4c3)[nH]c(=O)c2c1C(F)(F)F` [6-512], for which the IC50 was found to be 0.95 nM.

Take `O=C(N[C@H](CN1CC(F)C1)C1CC1)c1nn2cc(-c3ccc4ccccc4c3)[nH]c(=O)c2c1C(F)(F)F` [6-513]: the IC50 is 7.1 nM.

`C[C@@H](CN1CC(F)C1)NC(=O)c1nn2cc(-c3ccc4ccccc4c3)[nH]c(=O)c2c1C(F)(F)F` [6-514]: the IC50 was determined as 9.25 nM.

Regarding `COC[C@H](C)NC(=O)c1nn2cc(-c3ccc4ccccc4c3)[nH]c(=O)c2c1C(F)(F)F` [6-515], the IC50 came out at 3 nM.

Regarding `COC[C@@H](C)NC(=O)c1nn2cc(-c3ccc4ccccc4c3)[nH]c(=O)c2c1C(F)(F)F` [6-516], the IC50 turned out to be 4.4 nM.

As to `CN(CCNC(=O)c1nn2cc(-c3ccc4ccccc4c3)[nH]c(=O)c2c1C(F)(F)F)C1CC1` [6-517], the IC50 was determined as 4.2 nM.

Consider `O=C(NC1CCN(CC(F)F)C1)c1nn2cc(-c3ccc4ccccc4c3)[nH]c(=O)c2c1C(F)(F)F` (centres unmarked) [6-518], for which the IC50 came out at 1.7 nM.

`C[C@H](CO)NC(=O)c1nn2cc(-c3ccc4ccccc4c3)[nH]c(=O)c2c1C(F)(F)F` [6-525]: the IC50 turned out to be 7.8 nM.

With `C[C@@H](CO)NC(=O)c1nn2cc(-c3ccc4ccccc4c3)[nH]c(=O)c2c1C(F)(F)F` [6-526], the IC50 came out at 9.43 nM.

Take `O=C(NCCN(CC(F)F)C1CC1)c1nn2cc(-c3ccc4ccccc4c3)[nH]c(=O)c2c1C(F)(F)F` [6-527]: the IC50 is 3.37 nM.

As for `CN1CC(NC(=O)c2nn3cc(-c4ccc5c(c4)OCCO5)[nH]c(=O)c3c2C(F)(F)F)(c2ccc(F)cc2)C1` [6-535], the IC50 was found to be 4.2 nM.

Consider `CC(C)c1c(C(=O)N[C@@H](c2ccc(F)cc2)C(F)(F)CO)nn2cc(-c3ccc(Cl)c(F)c3)[nH]c(=O)c12` [6-536], for which the IC50 is 3.8 nM.

Regarding `CC(C)c1c(C(=O)NC2(c3ccc(F)cc3)CN(C)C2)nn2cc(-c3ccc(Cl)c(F)c3)[nH]c(=O)c12` [6-538], the IC50 stood at 2.77 nM.

Turning to `CC(C)c1c(C(=O)N[C@@H](C)C2CC2)nn2cc(-c3ccc(Cl)c(F)c3)[nH]c(=O)c12` [6-539], the IC50 amounted to 3.3 nM.

Turning to `CC(C)c1c(C(=O)N[C@H](C)C2CC2)nn2cc(-c3ccc(Cl)c(F)c3)[nH]c(=O)c12` [6-540], the IC50 is 0.85 nM.

For `O=C(N[C@H](CCO)c1ccccc1)c1cc2c(=O)[nH]c(-c3ccc4ccccc4c3)cn2n1` [6-541], the IC50 came to 0.97 nM.

In the case of `O=C(N[C@H](CN1CC(F)(F)C1)c1ccccc1)c1cc2c(=O)[nH]c(-c3ccc4ccccc4c3)cn2n1` [6-544], the IC50 was 1.65 nM.

On to `O=C(N[C@H](CN1CC(F)C1)c1ccccc1)c1cc2c(=O)[nH]c(-c3ccc4ccccc4c3)cn2n1` [6-545], for which the IC50 came to 0.77 nM.

Turning to `Cc1cccc2ncc(-c3cn4nc(C(=O)N[C@@H](c5ccc(F)cc5)C(C)(C)O)c(C(F)(F)F)c4c(=O)[nH]3)cc12` [6-546], the IC50 stood at 3.13 nM.

In the case of `CC[C@@H](C)NC(=O)c1nn2cc(-c3cnc4cccc(C)c4c3)[nH]c(=O)c2c1C(F)(F)F` [6-547], the IC50 came out at 7.8 nM.

With `Cc1cc(-c2cn3nc(C(=O)N[C@@H](C)C4CC4)c(C4CC4(F)F)c3c(=O)[nH]2)ccc1Cl` (some centres unmarked) [6-550], the IC50 came out at 0.84 nM.

For `Cc1cc(-c2cn3nc(C(=O)N[C@@H](c4ccc(F)cc4)C(C)(C)O)c(C4CC4(F)F)c3c(=O)[nH]2)ccc1Cl` (some centres unmarked) [6-551], the IC50 is 1.7 nM.

Consider `CC(C)(O)[C@@H](NC(=O)c1nn2cc(-c3ccc(Cl)c(Cl)c3)[nH]c(=O)c2c1C1CC(F)(F)C1)c1ccc(F)cc1` [6-552], for which the IC50 turned out to be 2.55 nM.

With `C[C@H](NC(=O)c1nn2cc(-c3ccc(Cl)c(Cl)c3)[nH]c(=O)c2c1C1CC(F)(F)C1)C1CC1` [6-553], the IC50 stood at 2.8 nM.

Consider `CC(C)(O)[C@@H](NC(=O)c1nn2cc(-c3ccc(Cl)c(F)c3)[nH]c(=O)c2c1C1CC(F)(F)C1)c1ccc(F)cc1` [6-555], for which the IC50 stood at 3.35 nM.

In the case of `C[C@H](NC(=O)c1nn2cc(-c3ccc(Cl)c(F)c3)[nH]c(=O)c2c1C1CC(F)(F)C1)C1CC1` [6-556], the IC50 amounted to 2.15 nM.

As for `Cc1cc(-c2cn3nc(C(=O)N[C@@H](C)C4CC4)c(C4CC(F)(F)C4)c3c(=O)[nH]2)ccc1Cl` [6-558], the IC50 is 1.15 nM.

On to `Cc1ccc(-c2cn3nc(C(=O)N[C@@H](c4ccc(F)cc4)C(C)(C)O)c(C4CC(F)(F)C4)c3c(=O)[nH]2)cc1Cl` [6-559], for which the IC50 stood at 6.07 nM.

Take `Cc1ccc(-c2cn3nc(C(=O)N[C@@H](C)C4CC4)c(C4CC(F)(F)C4)c3c(=O)[nH]2)cc1Cl` [6-560]: the IC50 turned out to be 1.6 nM.

With `Cc1ccc(-c2cn3nc(C(=O)N[C@@H](C)C4CC4)c(C4CC4(F)F)c3c(=O)[nH]2)cc1Cl` (some centres unmarked) [6-561], the IC50 stood at 1.1 nM.

As for `Cc1ccc(-c2cn3nc(C(=O)N[C@@H](c4ccc(F)cc4)C(C)(C)O)c(C4CC4(F)F)c3c(=O)[nH]2)cc1Cl` (some centres unmarked) [6-563], the IC50 turned out to be 2.9 nM.

As to `CC(C)(O)[C@@H](NC(=O)c1nn2cc(-c3ccc(Cl)c(F)c3)[nH]c(=O)c2c1C1CC1(F)F)c1ccc(F)cc1` (some centres unmarked) [6-564], the IC50 came to 4.05 nM.
